# Values of other authors, collected in patent US11549142B2, “CETP inhibitors for therapeutic use” (Hoffmann-La Roche Inc., priority 2013, dated 2023).
# System: patients
# Details: torcetrapib and atorvastatin concomitantly compared to atorvastatin alone; cited from earlier work
smiles,measurement,value
"CCOC(=O)N1c2ccc(C(F)(F)F)cc2[C@@H](N(Cc2cc(C(F)(F)F)cc(C(F)(F)F)c2)C(=O)OC)C[C@H]1CC [torcetrapib, (2R,4S)-4-[(3,5-bistrifluoromethylbenzyl)methoxycarbonylamino]-2-ethyl-6-trifluoromethyl-3,4-dihydro-2H-quinoline-1-carboxylic acid ethyl ester]",reason for termination of the Phase III clinical trial,incidence of mortality
